Data from PubChem BioAssay AID602337 (The Scripps Research Institute Molecular Screening Center, 2012).
The source made the active and inactive calls. The rule behind the calls is not given here.

Assay: cytotoxicity of DAGLb inhibitor compounds, dose response, cytotoxicity control for DAGLb inhibitor project, cell-based, absorbance, serum and serum-free conditions (AID 602337)
Conditions: mammalian cell viability, absorbance readout

COc1ccc(-c2ccc(-c3cn(C(=O)N4CCCCC4c4ccccc4)nn3)cc2)cc1 (stereo not drawn)
CC50 (with serum): 5.9 µM | CC50 (without serum): > 100 µM (inactive)

COc1ccccc1-c1ccc(-c2cn(C(=O)N3CCCCC3Cc3ccccc3)nn2)cc1 (stereo not drawn)
CC50 (with serum): 3.1 µM | CC50 (without serum): > 100 µM (inactive)

O=C(N1CCCCC1Cc1ccccc1)n1cc(-c2ccc(-c3ccccc3)cc2)nn1 (stereo not drawn)
CC50 (with serum): 4.2 µM | CC50 (without serum): > 100 µM (inactive)

O=C(N1CCCCC1c1ccccc1)n1cc(-c2ccc(-c3ccccc3)cc2)nn1 (stereo not drawn)
CC50 (with serum): > 50 µM (inactive) | CC50 (without serum): > 100 µM (inactive)
